Test results reported in the NIST ThermoML archive (doi:10.1016/j.jct.2010.12.027).

Columns and labels:
[1] = xn = mol fraction of the nth substance listed; settings: 298.15 K, 101 kPa, Liquid; for viscosity: Capillary tube (Ostwald / Ubbelohde) method; for mass density: Vibrating tube method
[2] = 298.15 K, 101 kPa, Liquid; for viscosity: Capillary tube (Ostwald / Ubbelohde) method; for mass density: Vibrating tube method

C1CCOC1 [tetrahydrofuran] + CCCCCCn1cc[n+](C)c1.F[B-](F)(F)F
[1], x2 = 0
Settings	mass density [kg/m3]	viscosity [mPa·s]
–	882.13	0.475

CCCCN [1-butanamine] + CCCCCCn1cc[n+](C)c1.F[B-](F)(F)F
[1]
Settings	mass density [kg/m3]	viscosity [mPa·s]
x2 = 0	732.88	0.476
x2 = 0.0492	778.02	0.889
x2 = 0.0994	809.01	1.433
x2 = 0.1997	888.25	3.137
x2 = 0.3002	943.91	6.183
x2 = 0.3525	968.66	8.532
x2 = 0.4013	989.49	11.16
x2 = 0.4492	1008.25	14.68
x2 = 0.5037	1027.64	19.56
x2 = 0.5524	1043.6	25.39
x2 = 0.6009	1058.22	32.05
x2 = 0.7036	1085.8	53.63
x2 = 0.7873	1105.23	76.62
x2 = 0.8787	1124.35	117.48

CCCCN [1-butanamine]
[2]
Settings	mass density [kg/m3]	viscosity [mPa·s]
–	732.88	0.476

CCOC(C)=O [ethyl acetate] + CCCCCCn1cc[n+](C)c1.F[B-](F)(F)F
[1], x2 = 0
Settings	mass density [kg/m3]	viscosity [mPa·s]
–	894.48	0.437

C1CCOC1 [tetrahydrofuran]
[2]
Settings	mass density [kg/m3]	viscosity [mPa·s]
–	882.13	0.475

CCCCCCn1cc[n+](C)c1.F[B-](F)(F)F [1-hexyl-3-methylimidazolium tetrafluoroborate] + C1CCOC1
[1]
Settings	mass density [kg/m3]	viscosity [mPa·s]
x1 = 0.0498	922.89	0.891
x1 = 0.1008	956.61	1.564
x1 = 0.203	1007.44	3.869
x1 = 0.2976	1041.06	7.658
x1 = 0.3461	1054.83	10.44
x1 = 0.3965	1067.37	13.93
x1 = 0.4457	1078.09	18.37
x1 = 0.5003	1088.63	24.9
x1 = 0.5548	1097.81	33.17
x1 = 0.6083	1106.02	42.68
x1 = 0.7025	1118.37	65.77
x1 = 0.7992	1129	97.79
x1 = 0.8925	1137.77	141.64
x1 = 1	1146.7	195.37

CCOC(C)=O [ethyl acetate]
[2]
Settings	mass density [kg/m3]	viscosity [mPa·s]
–	894.48	0.437

CCCCCCn1cc[n+](C)c1.F[B-](F)(F)F [1-hexyl-3-methylimidazolium tetrafluoroborate] + CCCCN
[1], x1 = 1
Settings	mass density [kg/m3]	viscosity [mPa·s]
–	1146.7	195.37

CCCCCCn1cc[n+](C)c1.F[B-](F)(F)F [1-hexyl-3-methylimidazolium tetrafluoroborate]
[2]
Settings	mass density [kg/m3]	viscosity [mPa·s]
–	1146.7	195.37

CCC(C)=O [butanone]
[2]
Settings	mass density [kg/m3]	viscosity [mPa·s]
–	799.87	0.388

CCCCCCn1cc[n+](C)c1.F[B-](F)(F)F [1-hexyl-3-methylimidazolium tetrafluoroborate] + CCOC(C)=O
[1]
Settings	mass density [kg/m3]	viscosity [mPa·s]
x1 = 0.0498	925.56	0.738
x1 = 0.1	952.69	1.188
x1 = 0.2027	997.78	2.674
x1 = 0.302	1031.52	5.221
x1 = 0.3475	1044.35	6.846
x1 = 0.3983	1057.37	9.328
x1 = 0.4488	1068.89	12.31
x1 = 0.501	1079.8	16.47
x1 = 0.5487	1088.62	21.49
x1 = 0.6022	1097.8	28.48
x1 = 0.7075	1113.73	48.11
x1 = 0.8066	1126.46	80.43
x1 = 0.8908	1135.69	119.88
x1 = 1	1146.7	195.37

CCC(C)=O [butanone] + CCCCCCn1cc[n+](C)c1.F[B-](F)(F)F
[1], x2 = 0
Settings	mass density [kg/m3]	viscosity [mPa·s]
–	799.87	0.388

CCCCCCn1cc[n+](C)c1.F[B-](F)(F)F [1-hexyl-3-methylimidazolium tetrafluoroborate] + CCC(C)=O
[1]
Settings	mass density [kg/m3]	viscosity [mPa·s]
x1 = 0.0492	845.71	0.6
x1 = 0.0988	889.12	0.914
x1 = 0.2011	946.15	2.059
x1 = 0.2989	991.57	4.063
x1 = 0.3482	1010.53	5.578
x1 = 0.3972	1027.28	7.507
x1 = 0.4605	1046.8	11.08
x1 = 0.4981	1057.05	13.67
x1 = 0.55	1070.3	18.57
x1 = 0.6057	1082.75	24.46
x1 = 0.7054	1102.84	43.38
x1 = 0.7955	1119.38	69.4
x1 = 0.8931	1132.37	110.34
x1 = 1	1146.7	195.37
